Laboratory results published in PubChem BioAssay AID2060496 (Molecular Pharmacology Branch, DTP, NCI, 2025).
Where “and” joins values, the source holds several entries; their conditions need not be identical. Identical values can stand only once.

Tested on: 276233-004-R-J1-PDC complex spheroid viability
Test: Anticancer human tumor 276233-004-R-J1-PDC patient-derived colon adenocarcinoma cell line growth inhibition [GQUAD]
Details: for viability, T/C: stronger effect = lower value
From the text: DNA G-quadruplex Stabilizer Agents in Combinations in Complex Spheroids
A high-throughput screen of multi-cell type tumor spheroids was designed to identify active combinations of DNA G-quadruplex stabilizer agents and targeted small molecules. Complex spheroids include a stromal component modeled by human endothelial cells (HUVEC) and fibroblasts modeled by human mesenchymal stem cells (MSCs). The concentration ranges selected for each drug and investigational agent were based upon clinically achievable concentrations if the clinical Cmax of the agent was known.
Compounds. The drugs and investigational agents: pidnarulex (CX-5461; NSC782164), APTO-253 (NSC789042), BRACO-19 (NSC847499), peposertib (NSC802822), ceralasertib (NSC780249), elimusertib (NSC800525), camonsertib (NSC841442), AZD-1390 (NSC803789), olaparib (NSC753686), talazoparib (NSC767125), ART-558 (NSC835418), sotorasib (NSC818433), MRTX-1133 (NSC836407), SN-38 (NSC673596), topotecan (NSC609699), etoposide (NSC141540), doxorubicin (NSC123127), gemcitabine (NSC613327), 5-fluorouracil (NSC19893), paclitaxel (NSC125973), vemurafenib (NSC761431), panobinostat (NSC761190), R-306465 (JNJ-16241199; NSC773264), adavosertib (NSC754352), TP-3654 (NSC805149), carboplatin (NSC241240), KSQ-4279 (NSC840948), and staurosporine (NSC755774) were obtained from the National Cancer Institute (NCI) Developmental Therapeutics Program Chemical Repository (34). The FDA-approved anticancer drug set is available from the NCI Developmental Therapeutics Program. […] The stock solutions were prepared in dimethyl sulfoxide (DMSO, Sigma-Aldrich, St. Louis, MO, cat. D2650) at 800-fold the tested concentration and stored at -70 degrees C prior to their use. All drugs and investigational agents were tested over a range starting from a high concentration at or near the clinical Cmax and decreasing in half-log increments. If the clinical Cmax for an agent had not been determined, the highest concentration tested was 10 microM.
2.3 Cell Culture. All cells were maintained in an incubator at 37 degrees C and 5% CO2 with 95% humidity. The PDC lines were cultured according to standard operating procedures established by the NCI PDMR. All PDCs were thawed and cultured in Matrigel-coated flasks prepared with a working solution of 1X Ham's F-12 nutrient mix, without supplementation (Invitrogen, cat. 11765054), 100 U/mL penicillin-streptomycin (Invitrogen, cat. 15140122), and 2.5% Matrigel (Corning Inc., cat. 354248) for the first three passages. The 857933-349-R-J2-PDC line was cultured in 6C/Colon 1B media, which includes advanced DMEM/F-12 (Thermo Fisher Scientific, cat. 12634028), 10 mM HEPES (Thermo Fisher Scientific, cat. 15630080), 1X GlutaMAX supplement (Thermo Fisher Scientific, cat. 35050061), 0.1 mg/mL primocin (InvivoGen, cat. ant-pm-2), 10% defined fetal bovine serum, heat inactivated (HyClone Laboratories Inc., cat. SH30070.03HI), 50% L-WRN conditioned media (ATCC, cat. CRL-3276), 1.25 mM N-Acetyl-L-cysteine (Sigma-Aldrich, cat. A9165), 10 mM nicotinamide (Sigma-Aldrich, cat. N0636), 1X B-27 supplement (Thermo Fisher Scientific, cat. 17504044), 1X N-2 supplement (Thermo Fisher Scientific, cat. 17502048), 10 microM Y-27632 dihydrochloride (Tocris Bioscience, cat. 1254), and 50 ng/mL human EGF recombinant protein (Thermo Fisher Scientific, cat. PHG0311). The 485176-168-R4-J1-PDC line was cultured in Panc media, which includes all 6C/Colon 1B media components plus 100 ng/mL human FGF-10 (Thermo Fisher Scientific, cat. 100-26), 500 nM SB-431542 (Selleckchem, cat. S1067), and gastrin (Tocris, cat. 3006).
[…]
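Also: spheroids exposed to drugs for seven days.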
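For viability, T/C in this document: 100% = DMSO vehicle control viability.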

| Compound | viability, T/C (compound 0.0316 µM) | viability, T/C (compound 0.1 µM) | viability, T/C (compound 0.316 µM) | viability, T/C (compound 1 µM) | viability, T/C (compound 3.16 µM) | viability, T/C (compound 10 µM) | IC50 (curve of compound) | viability, T/C (compound 0.000999 µM) | viability, T/C (compound 0.00316 µM) | viability, T/C (compound 0.00999 µM) | viability, T/C (compound 0.0999 µM) | IC50 (compound alone, run of 02/26/2024) |
| --- | --- | --- | --- | --- | --- | --- | --- | --- | --- | --- | --- | --- |
| C#Cc1c(F)ccc2cc(O)cc(-c3ncc4c(N5CC6CCC(C5)N6)nc(OCC56CCCN5CC(F)C6)nc4c3F)c12 (centres undefined) | 92.7% and 70.8% and 78.7% | 73.1% and 96.4% and 89.9% | 66.8% and 78.3% and 71.8% | 87.9% and 83.5% and 69.9% | 86.9% and 49.7% and 45.9% | 68.2% and 36.4% and 44.5% | > 10 µM and 3.14 µM and 2.93 µM |  |  |  |  |  |
| C=CC(=O)N1CCN(c2nc(=O)n(-c3c(C)ccnc3C(C)C)c3nc(-c4c(O)cccc4F)c(F)cc23)C(C)C1 (centres undefined) | 107% and 92.8% and 91.6% | 89.2% and 119% and 77.8% | 102% and 80.8% and 89% | 96.7% and 101% and 87.3% | 98.4% and 92.5% and 85.8% | 91.2% and 93.1% and 84.2% | > 10 µM |  |  |  |  |  |
| C=CCn1c(=O)c2cnc(Nc3ccc(N4CCN(C)CC4)cc3)nc2n1-c1cccc(C(C)(C)O)n1 | 108% and 106% and 77.9% | 92.1% and 90.6% and 74.1% | 70.8% and 73.3% and 90.3% | 63.5% and 69.4% and 61.4% | 73.4% and 78.4% and 80.3% | 65.8% and 87.4% and 92.2% | > 10 µM |  |  |  |  |  |
| CC(=O)O[C@H]1C(=O)[C@@]2(C)[C@H]([C@H](OC(=O)c3ccccc3)[C@]3(O)C[C@H](OC(=O)[C@H](O)[C@@H](NC(=O)c4ccccc4)c4ccccc4)C(C)=C1C3(C)C)[C@]1(OC(C)=O)CO[C@@H]1C[C@@H]2O | 84.1% and 80.2% and 104% | 96.1% and 82.8% and 71.2% | 82.9% and 80.8% and 85.8% | 87.2% and 95.1% and 88.6% | 99.2% and 101% and 86.8% | 76.9% and 80.1% and 86.2% | > 10 µM |  |  |  |  |  |
| CC(C)(O)C1CCC(Nc2ccc3ncc(-c4cccc(C(F)(F)F)c4)n3n2)CC1 (centres undefined) | 82.3% and 80.4% and 95.8% | 73.1% and 79.5% and 84.1% | 72.7% and 86.8% and 87.8% | 62.9% and 60.6% and 73.3% | 43.8% and 49.5% and 61% | 45.6% and 63.7% and 54.7% | 2.38 µM and > 10 µM |  |  |  |  |  |
| CC(C)n1c(=O)n(C)c2cnc3cc(F)c(-c4ccc(OCCCN5CCCCC5)nc4)cc3c21 | 91.9% and 80.4% and 93.2% | 86.8% and 101% and 78.8% | 107% and 86.6% and 73.3% | 99.4% and 85.9% and 73.2% | 108% and 84.9% and 95.3% | 86.9% and 68.8% and 77% | > 10 µM |  |  |  |  |  |
| CC1COCCN1c1cc(-c2ccnn2C)c2ccnc(-c3ccn[nH]3)c2n1 (centres undefined) | 99.9% and 85.8% and 70.3% | 85.9% and 83.5% and 72.1% | 83.8% and 82.2% and 60.7% | 68.7% and 82.9% and 70.1% | 77.7% and 57.3% and 56.7% | 58.9% and 53.9% and 47.2% | > 10 µM and 7.41 µM |  |  |  |  |  |
| CC1COCCN1c1cc(C2(O)CC3CCC(C2)O3)c2cnn(-c3ccn[nH]3)c2n1 (centres undefined) | 98% and 89.3% and 74.2% | 74.3% and 88.6% and 73.8% | 65.7% and 71% and 68.6% | 59.9% and 61.2% and 68.8% | 56.3% and 54.3% and 63.9% | 41.6% and 47.4% and 45.6% | 3.92 µM and 6.86 µM and 7.56 µM |  |  |  |  |  |
| CC1COCCN1c1cc(C2(S(C)(=N)=O)CC2)nc(-c2ccnc3[nH]ccc23)n1 (centres undefined) | 103% (2×) and 89.1% | 92.5% and 89% and 63% | 96.4% and 75.8% and 79.6% | 93.7% and 76% and 77.1% | 89.8% and 75.2% and 74.9% | 68.3% and 69.6% and 60.1% | > 10 µM |  |  |  |  |  |
| CCCS(=O)(=O)Nc1ccc(F)c(C(=O)c2c[nH]c3ncc(-c4ccc(Cl)cc4)cc23)c1F | 85% and 77.1% and 99.3% | 91.3% and 96.2% and 84.7% | 85.8% and 98.6% and 111% | 97.5% and 83.7% and 96.3% | 79.2% and 91% and 121% | 56.8% and 59.4% and 76.4% | > 10 µM |  |  |  |  |  |
| CC[C@@]1(O)C(=O)OCc2c1cc1n(c2=O)Cc2cc3c(CN(C)C)c(O)ccc3nc2-1 | 97.6% and 112% and 79.8% |  | 90.9% and 107% and 98.6% |  |  |  | > 0.316 µM | 102% and 92.8% and 107% | 95.6% and 106% and 94.4% | 89.3% and 96.7% and 96.9% | 97.6% and 102% and 99.8% |  |
| CCc1c2c(nc3ccc(O)cc13)-c1cc3c(c(=O)n1C2)COC(=O)[C@]3(O)CC | 89.3% and 117% and 90.7% |  | 92.2% and 108% and 95.1% |  |  |  | > 0.316 µM | 98.6% and 89.7% and 104% | 93.7% and 94.5% and 92.8% | 120% and 88.8% and 82.7% | 98.1% and 103% and 110% |  |
| CN(C)c1ccc(Nc2c3ccc(NC(=O)CCN4CCCC4)cc3nc3cc(NC(=O)CCN4CCCC4)ccc23)cc1 |  |  | 65% [middle of 12 runs] | 64.4% [middle of 12 runs] | 61.7% [middle of 12 runs] | 49.8% [middle of 12 runs] |  |  |  |  |  | > 10 µM and 4.02 µM and 5.57 µM |
